According to US9993534B2, “Method of treating fungal infection” (Wisconsin Alumni Research Foundation, priority 2013, dated 2018):

System: 1807 cells
Assay type: cell-based, mouse
Conditions: Calnexin peptide #1, 13 amino acid sequence of the named species

With LVLKSRAKHHAIS [Homo sapiens (Calmegin)] the 1807 reactive was “not reactive with the 1807 cells”.
